The values below come from ChEMBL document CHEMBL3627674, “Discovery of wrightiadione as a novel template for the TrkA kinase inhibitors” (Bioorg Med Chem Lett, 2015).

The target in the first assay is Serine/threonine-protein kinase PLK3 (Homo sapiens, UniProt Q9H4B4). The experiment in a line: Inhibition of PLK3 (unknown origin) by radiometric analysis in presence of [gamma-33P]-ATP.
Chain of Serine/threonine-protein kinase PLK3 (Q9H4B4 whole entry): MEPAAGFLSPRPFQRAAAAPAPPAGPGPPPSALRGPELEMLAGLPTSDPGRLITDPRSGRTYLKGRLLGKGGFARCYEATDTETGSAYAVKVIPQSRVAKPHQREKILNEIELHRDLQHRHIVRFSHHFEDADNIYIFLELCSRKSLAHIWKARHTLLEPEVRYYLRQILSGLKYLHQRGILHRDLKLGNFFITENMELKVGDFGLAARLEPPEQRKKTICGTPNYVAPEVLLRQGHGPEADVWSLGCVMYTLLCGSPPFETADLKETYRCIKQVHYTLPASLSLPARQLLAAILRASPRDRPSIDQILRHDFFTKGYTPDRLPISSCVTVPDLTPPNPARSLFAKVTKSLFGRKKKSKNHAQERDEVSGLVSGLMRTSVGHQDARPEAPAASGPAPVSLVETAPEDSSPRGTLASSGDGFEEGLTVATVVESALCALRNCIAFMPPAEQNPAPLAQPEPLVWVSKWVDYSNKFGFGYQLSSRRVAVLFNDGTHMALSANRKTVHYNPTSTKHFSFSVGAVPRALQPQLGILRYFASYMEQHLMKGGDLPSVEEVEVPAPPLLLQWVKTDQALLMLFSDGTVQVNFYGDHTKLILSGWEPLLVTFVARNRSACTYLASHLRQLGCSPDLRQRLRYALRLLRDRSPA
With `Cn1c2c(c(=O)c3ccccc31)-c1ccccc1C2=O`, the IC50 was more than 200 µM.

In the next assay the target is High affinity nerve growth factor receptor (Homo sapiens, UniProt P04629). Briefly: Inhibition of TrkA (unknown origin) by radiometric analysis in presence of [gamma-33P]-ATP.
Chain of High affinity nerve growth factor receptor (P04629 whole entry): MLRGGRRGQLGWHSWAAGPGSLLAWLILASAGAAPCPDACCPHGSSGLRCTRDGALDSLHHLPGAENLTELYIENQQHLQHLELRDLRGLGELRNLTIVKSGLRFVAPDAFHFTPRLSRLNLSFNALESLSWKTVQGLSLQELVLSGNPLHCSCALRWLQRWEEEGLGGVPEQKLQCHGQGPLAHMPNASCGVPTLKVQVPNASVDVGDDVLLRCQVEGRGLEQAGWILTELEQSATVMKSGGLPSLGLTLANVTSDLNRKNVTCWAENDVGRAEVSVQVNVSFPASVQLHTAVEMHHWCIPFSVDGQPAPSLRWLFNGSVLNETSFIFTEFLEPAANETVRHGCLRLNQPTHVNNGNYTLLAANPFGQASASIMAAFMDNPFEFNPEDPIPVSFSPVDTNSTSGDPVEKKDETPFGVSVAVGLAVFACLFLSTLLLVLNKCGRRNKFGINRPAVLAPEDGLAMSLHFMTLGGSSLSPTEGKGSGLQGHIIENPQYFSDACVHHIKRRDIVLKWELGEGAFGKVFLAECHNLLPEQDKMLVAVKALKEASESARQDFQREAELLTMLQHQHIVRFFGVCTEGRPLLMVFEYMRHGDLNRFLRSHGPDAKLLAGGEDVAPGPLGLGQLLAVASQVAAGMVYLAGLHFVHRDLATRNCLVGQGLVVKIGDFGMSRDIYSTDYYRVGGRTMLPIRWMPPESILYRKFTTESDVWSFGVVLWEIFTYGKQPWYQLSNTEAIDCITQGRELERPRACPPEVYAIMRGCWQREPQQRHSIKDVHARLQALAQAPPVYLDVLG
Regarding `Cc1cccc2c1C(=O)c1c-2c(=O)c2ccccc2n1C`, the IC50 was determined as 73.3 µM.

With `Cc1ccc2c(c1)C(=O)c1c-2c(=O)c2ccccc2n1C`, the half-inhibitory concentration (IC50) was found to be 47.2 µM.

In the case of `Cn1c2c(c(=O)c3ccccc31)-c1ccccc1C2=O`, the IC50 came out at 28.9 µM.

With `O=C1c2ccccc2-c2c1n(Cc1ccccc1)c1ccccc1c2=O`, the IC50 worked out at 10.3 µM.

On to `COc1ccc2c(c1)C(=O)c1c-2c(=O)c2ccccc2n1Cc1ccccc1`, for which the IC50 was determined as 16.4 µM.

For `Cn1c2c(c(=O)c3ccc(C(F)(F)F)cc31)-c1ccccc1C2=O`, the IC50 was determined as 117 µM.

In the case of `Cn1c2c(c(=O)c3ccc(Cl)cc31)-c1ccccc1C2=O`, the IC50 was 88.5 µM.

Take `COc1cccc2c1-c1c(n(C)c3ccccc3c1=O)C2=O`: the IC50 came out at 209 µM.

Take `COc1ccc2c(c1)C(=O)c1c-2c(=O)c2ccccc2n1C`: the IC50 stood at 6.6 µM.

With `CCOC(=O)n1c2c(c(=O)c3ccccc31)-c1ccccc1C2=O`, the half-inhibitory concentration (IC50) is 16.5 µM.

Turning to `COc1ccc2c(c1)-c1c(n(C)c3ccccc3c1=O)C2=O`, the 50% inhibitory concentration (IC50) was found to be 14.4 µM.

In the case of `Cn1c2c(c(=O)c3ccccc31)-c1cccc(O)c1C2=O`, the IC50 turned out to be 141 µM.

The IC50 is the point on the concentration scale where inhibition reaches its midpoint.
